Patent publication US20090269796A1, “METHODS OF DETECTING AND TREATING MYOCARDIAL ISCHEMIA AND MYOCARDIAL INFARCTION” (THE GENERAL HOSPITAL CORPORATION, priority 2007, published 2009)

system: not listed separately; experiment: Metabolite changes in peripheral plasma after planned MI (alcohol septal ablation), LC-MS/MS profiling; format: in vivo, human; details: FIG. 3, lower panel
Description: A total of 36 patients undergoing planned MI using alcohol septal ablation for the treatment of symptomatic hypertrophic obstructive cardiomyopathy (HOCM) were included. Inclusion criteria for the cohort were: 1) primary HOCM; 2) septal thickness of 16 mm or greater; 3) resting outflow tract gradient of greater than 30 mmHg, or an inducible outflow tract gradient of at least 50 mm Hg; 4) symptoms refractory to optimal medical therapy; and 5) appropriate coronary anatomy. The most proximal accessible septal branch was instrumented using standard angioplasty guiding catheters and guidewires and 1.5 or 2.0 mm×9 mm Maverick™ balloon catheters. Radiographic and echocardiographic contrast injections confirmed proper selection of the septal branch and balloon catheter position. Ethanol was infused through the balloon catheter at 1 ml per minute. Additional injections in the same or other septal branches were administered as needed, causing cessation of blood flow to the isolated myocardium, and to reduce the gradient to <20 mmHg.^16 […]
The three HPLC columns were connected in parallel via an automated switching valve on a robotic sample loader (Leap Technologies) to a triple quadrupole mass spectrometer (AB4000Q, Applied Biosystem/Sciex), operated in electrospray ionization mode using a turbo ion spray LC/MS interface. […] A total of 210 known metabolites were monitored for each sample. […]

Row | Compound | Kinetic pattern of change in peripheral plasma after planned MI
1 | Nc1ccccc1C(=O)O [anthanilic acid] | Later-appearing
2 | CN(CC(=O)O)C(=N)N [creatine] | Later-appearing

system: not listed separately; experiment: Simultaneous coronary sinus and peripheral plasma sampling after planned MI (13-patient subgroup), LC-MS/MS profiling; format: in vivo, human; details: elevated earlier in coronary sinus, FIG. 4 top panel
Procedure: Blood was drawn at baseline (just prior to the onset of the ablation) and at minutes, 1 hour, 2 hours, 4 hours and 24 hours following the onset of injury as depicted in FIG. 1. 13 of the 36 patients consented to the placement of a coronary sinus catheter during the ablation, allowing for the simultaneous sampling from coronary sinus and femoral catheters at the baseline, 10-minute and 1-hour time points. The coronary sinus catheter was subsequently removed prior to the patient leaving the catheterization suite.
Samples were obtained from femoral venous catheters during the procedure or, where indicated, from a catheter placed in the coronary sinus. Samples were collected in K2EDTA-treated tubes (Becton Dickinson). All blood samples were centrifuged at 2000×g for 10 minutes to pellet cellular elements. The supernatant plasma was then aliquoted and immediately frozen at −80° C. to minimize freeze-thaw degradation. Additional blood samples were sent to the clinical chemistry laboratory for evaluation of the standard cardiac markers creatine kinase (CK), CK-MB, and Troponin T (Roche Diagnostics).
The specificity of the findings described above was further examined by exploring the anatomic origin of the metabolic changes. […]

Row | Compound | Time after injury until elevation evident in the periphery
3 | O=C(O)CC(O)C(=O)O (stereo not drawn) [Malic Acid] | 120 min
4 | O=P(O)(O)OCC(O)CO (stereo not drawn) [Glycerol-3-P, glycerol-3-phosphate] | 120 min

system: Neonatal rat cardiomyocytes; experiment: Hypoxia-induced apoptosis (annexin V) of cardiomyocytes pretreated with individual metabolites; format: cell-based; details: metabolite added 5 minutes before 3 hours hypoxia; lowest concentration screened; annexin V-positive cells; FIG. 6
Procedure: Neonatal rat cardiomyocytes were treated with individual metabolites previously identified using planned MI metabolomics. In the first, metabolites that are increased in the peripheral blood and/or the coronary sinus samples were prioritized. Neonatal cardiomyocytes were isolated from 1-day old rats, cultured for three days, and then challenged in a hypoxia chamber (<0.5% O2, 95% nitrogen and 5% CO2 at 37° C.) for 3 hours, as previously described.^18 Baseline apoptosis is typically ˜10%, which increases to ˜30% following hypoxic challenge, as assessed by FITC-conjugated annexin V staining. Metabolites at the indicated concentrations were added to experimental plates 5 minutes prior to the onset of hypoxia. Metabolites were examined at ˜2 fold reported blood concentrations (where available), as well as at one log increased concentration (see also Human Metabolomics Database, HMDB, at http://www.hmdb.ca). 30 minutes after reoxygenation, the number of annexin V-positive cells per five HPF was counted from n=3 culture plates. The data depicted represent the percent change in apoptosis relative to the hypoxia control for the lowest concentration of each metabolite screened. (*P<0.05 by unpaired student's t test). […] Accordingly, one would seek to inhibit the metabolite in question as part of treatment or prevention scheme.
Accordingly, one would seek to administer the metabolite in question as part of treatment or prevention scheme. Such metabolites include, according to FIG. 6, G3P, inosine, malonic acid, TMNO, and orotic acid. Alternatively, one could administer a compound that upregulates a pathway that results in the production of the metabolite in question.

Row | Compound | Mean % change in apoptosis vs. hypoxia control
5 | NCCS(=O)(=O)O [Taurine] | potentiates cell death
6 | OC[C@H]1O[C@@H](n2cnc3c(O)ncnc32)[C@H](O)[C@@H]1O [Inosine] | reduces cell death
7 | C[N+](C)(C)[O-] [Trimethylamine-N-Oxide] | reduces cell death
8 | O=C(O)c1cc(=O)[nH]c(=O)[nH]1 [Orotic Acid] | reduces cell death
9 | O=c1[nH]cnc2nc[nH]c12 [Hypoxanthine] | potentiates cell death
10 | O=P(O)(O)OCC(O)CO (stereo not drawn) [Glycerol-3-P, glycerol-3-phosphate] | reduces cell death
11 | O=C(O)CC(=O)O [Malonic Acid] | reduces cell death
12 | O=C(O)CCC(=O)O [Succinic Acid] | potentiates cell death
